{
  "source": "patent US8383581B2",
  "about": "“Short-chain peptides as parathyroid hormone (PTH) receptor agonist” (Cadila Healthcare Limited, priority 2009, dated 2013)",
  "type_in_all_cases": "in vitro ADME",
  "key": {"[1]": {"assay": "Stability of peptides in human plasma", "conditions": "human, plasma; for metabolised at 24 h, 2 μM: pH 7.8", "procedure,_shortened": "(§1)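 Peptides at 2 μM final incubated 0–24 h at 37 °C (50 mM triethanolamine-HCl, pH 7.8) in each matrix, matrix level set to degrade ~50% PTH(1-34) in 1 h; TFA-quenched, C18 HPLC at 206 nm with ESI-MS peak identification; percent degradation from peak areas at each time point.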"}, "[2]": {"assay": "Stability of peptides in simulated gastric fluid (pH 1.5; HCl, NaCl and Pepsin)", "conditions": "pH 1.5; for % degradation of peptides in 24 h when incubated with simulated gastric fluid: 2 μM; for half-life: simulated gi fluid"}, "[3]": {"assay": "Stability of peptides in simulated intestinal fluid (pH 7.5)", "conditions": "pH 7.5; for half-life: simulated gi fluid; for % degradation of peptides in 24 h when incubated with simulated intestinal fluid: 2 μM", "procedure,_shortened": "as §1"}, "[4]": {"assay": "Stability of peptides in human liver microsomes", "conditions": "human, microsomes; for % degradation of peptides in 24 h when incubated with liver microsomes: 2 μM, pH 7.8", "procedure,_shortened": "as §1"}},
  "note": "Where a SMILES comes first, the peptide text is derived from it. [ ]: non-standard residue; d: D form. ξ: configuration not given here. ξαMe(hhPhe) = CC(N)(CCCc1ccccc1)C(=O)O; ξαMePhe(2-F) = CC(N)(Cc1ccccc1F)C(=O)O; hhPhe = N[C@@H](CCCc1ccccc1)C(=O)O; hArg = N=C(N)NCCCC[C@H](N)C(=O)O; NMeV = CN[C@H](C(=O)O)C(C)C; ξαMeNle = CCCCC(C)(N)C(=O)O; ξαMeV = CC(C)C(C)(N)C(=O)O; ξαMeM = CSCCC(C)(N)C(=O)O; Ac5c = NC1(C(=O)O)CCCC1; Aib = CC(C)(N)C(=O)O",
  "data": [
    {"smiles": "CC[C@H](C)[C@H](NC(=O)[C@H](CCC(=O)O)NC(=O)C(C)(C)NC(=O)[C@@H](NC(=O)C(C)(C)N)C(C)C)C(=O)N[C@@H](CCC(N)=O)C(=O)N[C@@H](CC(C)C)C(=O)NC(C)(CCSC)C(=O)N[C@@H](Cc1c[nH]cn1)C(=O)N[C@@H](CCC(N)=O)C(=O)N[C@@H](CCCCNC(=N)N)C(=O)N[C@@H](C)C(=O)N[C@@H](CCCCNC(=N)N)C(=O)NC(C)(Cc1ccccc1F)C(=O)N[C@@H](CCCc1ccccc1)C(N)=O", "note": "(some centres unmarked) [Seq. ID. 930] (H-[Aib]V[Aib]EIQL[ξαMeM]HQ[hArg]A[hArg][ξαMePhe(2-F)][hhPhe]-NH2)", "values": [
      {"measurement": "half-life", "setting": "[1]", "result": "> 24", "unit": "h"},
      {"measurement": "metabolised at 24 h, 2 μM", "setting": "[1]", "result": 0, "unit": "%"},
      {"measurement": "% degradation of peptides in 24 h when incubated with simulated gastric fluid", "setting": "[2]", "result": "00", "unit": "%"},
      {"measurement": "half-life", "setting": "[2]", "result": "> 24", "unit": "h"},
      {"measurement": "half-life", "setting": "[3]", "result": "> 24", "unit": "h"},
      {"measurement": "% degradation of peptides in 24 h when incubated with simulated intestinal fluid", "setting": "[3]", "result": "00", "unit": "%"},
      {"measurement": "half-life (t1/2) in liver microsomes", "setting": "[4]", "result": "(5) h"},
      {"measurement": "% degradation of peptides in 24 h when incubated with liver microsomes", "setting": "[4]", "result": 32, "unit": "%"}
    ]},
    {"smiles": "CC[C@H](C)[C@H](NC(=O)[C@H](CCC(=O)O)NC(=O)C(C)(C)NC(=O)[C@@H](NC(=O)C1(NC(=O)[C@@H](N)C(C)C)CCCC1)C(C)C)C(=O)N[C@@H](CCC(N)=O)C(=O)N[C@@H](CC(C)C)C(=O)NC(C)(CCSC)C(=O)N[C@@H](Cc1c[nH]cn1)C(=O)N[C@@H](CCC(N)=O)C(=O)N[C@@H](CCCCNC(=N)N)C(=O)N[C@@H](C)C(=O)N[C@@H](CCCCNC(=N)N)C(=O)NC(C)(Cc1ccccc1F)C(=O)NC(C)(CCCc1ccccc1)C(N)=O", "note": "(some centres unmarked) [Seq. ID. 936] (H-V[Ac5c]V[Aib]EIQL[ξαMeM]HQ[hArg]A[hArg][ξαMePhe(2-F)][ξαMe(hhPhe)]-NH2)", "values": [
      {"measurement": "half-life", "setting": "[1]", "result": "> 24", "unit": "h"},
      {"measurement": "metabolised at 24 h, 2 μM", "setting": "[1]", "result": 0, "unit": "%"},
      {"measurement": "% degradation of peptides in 24 h when incubated with simulated gastric fluid", "setting": "[2]", "result": 52, "unit": "%"},
      {"measurement": "half-life", "setting": "[2]", "result": 4, "unit": "h"},
      {"measurement": "half-life", "setting": "[3]", "result": "> 24", "unit": "h"},
      {"measurement": "% degradation of peptides in 24 h when incubated with simulated intestinal fluid", "setting": "[3]", "result": "00", "unit": "%"},
      {"measurement": "half-life", "setting": "[4]", "result": 2, "unit": "h"},
      {"measurement": "% degradation of peptides in 24 h when incubated with liver microsomes", "setting": "[4]", "result": 81, "unit": "%"}
    ]},
    {"smiles": "CCCCC(C)(NC(=O)[C@H](CC(C)C)NC(=O)[C@H](CCC(N)=O)NC(=O)[C@@H](NC(=O)[C@H](CCC(=O)O)NC(=O)C(C)(C)NC(=O)[C@@H](NC(=O)C1(NC(=O)C(C)(N)C(C)C)CCCC1)C(C)C)[C@@H](C)CC)C(=O)N[C@@H](Cc1c[nH]cn1)C(=O)N[C@@H](CCC(N)=O)C(=O)N[C@@H](CCCCNC(=N)N)C(=O)N[C@@H](C)C(=O)N[C@@H](CCCCNC(=N)N)C(=O)NC(C)(Cc1ccccc1F)C(=O)NC(C)(CCCc1ccccc1)C(N)=O", "note": "(some centres unmarked) [Seq. ID. 939] (H-[ξαMeV][Ac5c]V[Aib]EIQL[ξαMeNle]HQ[hArg]A[hArg][ξαMePhe(2-F)][ξαMe(hhPhe)]-NH2)", "values": [
      {"measurement": "half-life", "setting": "[1]", "result": "> 20", "unit": "h"},
      {"measurement": "metabolised at 24 h, 2 μM", "setting": "[1]", "result": 10, "unit": "%"},
      {"measurement": "% degradation of peptides in 24 h when incubated with simulated gastric fluid", "setting": "[2]", "result": "08", "unit": "%"},
      {"measurement": "half-life", "setting": "[2]", "result": "> 22", "unit": "h"},
      {"measurement": "half-life", "setting": "[3]", "result": "> 22", "unit": "h"},
      {"measurement": "% degradation of peptides in 24 h when incubated with simulated intestinal fluid", "setting": "[3]", "result": "09", "unit": "%"},
      {"measurement": "half-life (t1/2) in liver microsomes", "setting": "[4]", "result": "(5) h"},
      {"measurement": "% degradation of peptides in 24 h when incubated with liver microsomes", "setting": "[4]", "result": 33, "unit": "%"}
    ]},
    {"smiles": "CC[C@H](C)[C@H](NC(=O)[C@H](CCC(=O)O)NC(=O)C(C)(C)NC(=O)[C@@H](NC(=O)C1(NC(=O)[C@@H](NC)C(C)C)CCCC1)C(C)C)C(=O)N[C@@H](CCC(N)=O)C(=O)N[C@@H](CC(C)C)C(=O)NC(C)(CCSC)C(=O)N[C@@H](Cc1c[nH]cn1)C(=O)N[C@@H](CCC(N)=O)C(=O)N[C@@H](CCCCNC(=N)N)C(=O)N[C@@H](C)C(=O)N[C@@H](CCCCNC(=N)N)C(=O)NC(C)(Cc1ccccc1F)C(=O)NC(C)(CCCc1ccccc1)C(N)=O", "note": "(some centres unmarked) [Seq. ID. 940] (H-[NMeV][Ac5c]V[Aib]EIQL[ξαMeM]HQ[hArg]A[hArg][ξαMePhe(2-F)][ξαMe(hhPhe)]-NH2)", "values": [
      {"measurement": "half-life", "setting": "[1]", "result": "> 24", "unit": "h"},
      {"measurement": "metabolised at 24 h, 2 μM", "setting": "[1]", "result": 0, "unit": "%"},
      {"measurement": "% degradation of peptides in 24 h when incubated with simulated gastric fluid", "setting": "[2]", "result": "00", "unit": "%"},
      {"measurement": "half-life", "setting": "[2]", "result": "> 24", "unit": "h"},
      {"measurement": "half-life", "setting": "[3]", "result": "> 24", "unit": "h"},
      {"measurement": "% degradation of peptides in 24 h when incubated with simulated intestinal fluid", "setting": "[3]", "result": "00", "unit": "%"},
      {"measurement": "half-life (t1/2) in liver microsomes", "setting": "[4]", "result": "(5) h"},
      {"measurement": "% degradation of peptides in 24 h when incubated with liver microsomes", "setting": "[4]", "result": 32, "unit": "%"}
    ]}
  ]
}
